Measured values reported in publication PMC7730182, “Synthesis and in Silico Modelling of the Potential Dual Mechanistic Activity of Small Cationic Peptides Potentiating the Antibiotic Novobiocin against Susceptible and Multi-Drug Resistant Escherichia coli” (International Journal of Molecular Sciences, 2020).
Where a SMILES comes first, the peptide text is derived from it. The star is where a group is joined. βNA = c1ccc2cc(N*)ccc2c1

How the values were obtained:
Type in all cases: cell-based, Escherichia coli
[1] = test system: susceptible E. coli NCTC 10418; test: Novobiocin potentiation assay (MIC of novobiocin with fixed concentration of peptide or PAβN); parameters: key to MIC of Novobiocin, E. coli NCTC 10418, +128 μg/mL added peptide / MIC of Novobiocin, E. coli NCTC 10418, +32 μg/mL added peptide: Non potentiating (NP) indicated no reduction in the MIC of novobiocin was observed; conditions: for MIC of Novobiocin, E. coli NCTC 10418, +128 μg/mL added peptide / MIC of Novobiocin, E. coli NCTC 10418, +32 μg/mL added peptide: Iso-Sensitest Broth, 5 × 10^5 CFU/mL, visual read-out; for MIC of Novobiocin, E. coli NCTC 10418, +128 μg/mL added peptide: fixed 128 μg/mL peptide; for MIC of Novobiocin, E. coli NCTC 10418, +32 μg/mL added peptide: fixed 32 μg/mL peptide; for potentiation of the MIC of novobiocin, result in words: added peptide, wording covers susceptible and multi-drug resistant strain
Protocol: (§1) The peptides were also tested in combination with antibiotics novobiocin and norfloxacin. Novobiocin has low efficacy against Gram-negative bacteria due to its hydrophobicity, giving limited cell permeability.
(§2) The antibacterial activity of the peptides and peptide/antibiotic combinations were tested by the broth microdilution assay according to [24]. Escherichia coli NCTC 10,418 and Staphylococcus aureus NCTC 12,981 were obtained from the National Collection of Type Cultures, UK. Escherichia coli G69 was a clinical isolate as previously described.
(§3) Briefly, all bacterial strains were cultured on nutrient agar (Sigma-Aldrich, Gillingham, UK) plates and incubated for 24 h at 37 °C prior to MIC determination. In addition, known quantities of each test sample were dissolved in DMSO and then diluted in ISB (Iso- Sensitest Broth, Oxoid, Basingstoke, UK) to give a range concentration of 128–0 μg/mL, unless stated differently. […] Finally, the overnight cultures of each of the tested strains were suspended to an inoculum density of approximately 1.0 × 10^8 CFU/mL in phosphate buffered saline (PBS), consisting of 137 mM NaCl, 3 mM KCl, 8 mM Na2HPO4, and […] (Oxoid, Basingstoke, UK). The cell suspensions were standardized by adjusting the optical density to 0.1 at 600 nm (Thermo Scientific UV-Vis Spectrophotometer, Abingdon, UK) before being diluted 1:100 in ISB prior to inoculation
(§4) The assays were performed by microdilution using 96-well microtiter plates with a final inoculum of 5 × 10^5 CFU/mL and each sample was tested in duplicate in at least two independent experiments in order to confirm the reliability of the data. Results were determined by visual inspection of the wells and the presence of an evident opaque medium or white pellets were indicative of bacterial growth. The MIC values were recorded as the lowest concentration at which no bacterial growth was detected.

[2] = test system: multi-drug resistant clinical isolate E. coli G69; test: as above; parameters: key to MIC of Novobiocin, E. coli G69, +32 μg/mL added peptide / MIC of Novobiocin, E. coli G69, +128 μg/mL added peptide: Non potentiating (NP) indicated no reduction in the MIC of novobiocin was observed; conditions: for MIC of Novobiocin, E. coli G69, +128 μg/mL added peptide / MIC of Novobiocin, E. coli G69, +32 μg/mL added peptide: Iso-Sensitest Broth, 5 × 10^5 CFU/mL, visual read-out; for MIC of Novobiocin, E. coli G69, +128 μg/mL added peptide: fixed 128 μg/mL peptide; for potentiation of novobiocin against multi-drug resistant E. coli, result in words: E. coli G69, added peptide; for MIC of Novobiocin, E. coli G69, +32 μg/mL added peptide: fixed 32 μg/mL peptide
Protocol: as §1, §2, §3, §4

[3] = test system: multidrug resistant clinical isolate E. coli G69; test: Norfloxacin potentiation assay (MIC of norfloxacin with fixed concentration of peptide or PAβN); conditions: broth microdilution, duplicate; for MIC of norfloxacin, E. coli G69, +128 μg/mL of peptide: fixed 128 μg/mL peptide
Protocol: (§5) In order to gather more evidence on the potential mechanisms of action, the effects of the peptides in combination with the quinolone antibiotic norfloxacin were determined. Norfloxacin is active against Gram-negative bacteria, generally achieving entry via porin channels, but is also able to enter the bacterial cell via the membrane in porin-deficient mutants. Therefore, any membrane permeability mechanism would not be expected to have a significant effect on improving the activity of norfloxacin in porin-competent strains. This is indeed what was observed (Table S5), which added weight to our hypothesis that our very short peptides may be acting as membrane permeability enhancers for novobiocin.
as §2
as §3, with “inoculation […]” for “inoculation”
(§6) The assays were performed by microdilution using 96-well microtiter plates with a final inoculum of 5 × 10^5 CFU/mL and each sample was tested in duplicate in at least two independent experiments in order to confirm the reliability of the data. Results were determined by visual inspection of the wells and the presence of an evident opaque medium or white pellets were indicative of bacterial growth. The MIC values were recorded as the lowest concentration at which no bacterial growth was detected. […]
(§7) potentiating novobiocin. Assays were performed at fixed concentration of 128 μg/mL against susceptible E. coli 10418 and multidrug resistant clinical isolate E. coli G69. Potentiation assay for norfloxacin was also performed in presence of 64 μg/mL of RND efflux pump inhibitor PAβN. All tests were repeated in […]
(§8) Compound Sequence MIC of norfloxacin (μg/mL) […]
(§9) inhibitor PaβN but no potentiation was observed, so the assay was not repeated at lower concentrations.

[4] = test system: susceptible E. coli 10418; test: as above; conditions: broth microdilution, duplicate; for MIC of norfloxacin, E. coli 10418, +128 μg/mL of peptide: fixed 128 μg/mL peptide
Protocol: as §5, §2
as §3, with “inoculation […]” for “inoculation”
as §6, §7, §8, §9

[5] = fixed 32 μg/mL PAβN, broth microdilution, duplicate
[6] = fixed 64 μg/mL PAβN, broth microdilution, duplicate

| Compound | MIC of Novobiocin, E. coli NCTC 10418, +128 μg/mL added peptide ([1]; broth microdilution, duplicate) | MIC of Novobiocin, E. coli G69, +128 μg/mL added peptide ([2]; broth microdilution, duplicate) | MIC of Novobiocin, E. coli G69, +32 μg/mL added peptide ([2]; broth microdilution, duplicate) | MIC of norfloxacin, E. coli G69, +128 μg/mL of peptide [3] [µg/mL] | MIC of norfloxacin, E. coli 10418, +128 μg/mL of peptide [4] [µg/mL] | also measured |
| --- | --- | --- | --- | --- | --- | --- |
| NC(N)=NCCC[C@H](NC(=O)[C@@H](N)Cc1ccccc1)C(=O)Nc1ccc2ccccc2c1 [PAβN, phenylalanine-arginine-β-naphthylamide, reference compound] (H-Phe-Arg-βNA) | – | – | – | – | – | reduction in MIC for novobiocin, susceptible E. coli 10418 ([1]; PAβN concentration of 72 μM (32 μg/mL)): twofold; MIC of Novobiocin, E. coli NCTC 10418, +32 μg/mL PAβN [1, 5]: 16 µg/mL; MIC of Novobiocin, E. coli NCTC 10418, +64 μg/mL PAβN [1, 6]: 8 µg/mL; MIC of Novobiocin, E. coli G69, +32 μg/mL PAβN [2, 5]: 8 µg/mL; MIC of Novobiocin, E. coli G69, +64 μg/mL PAβN [2, 6]: 2 µg/mL; concentration at which synergism with novobiocin is provided against multi-drug resistant E. coli G69 ([2]; molar equivalent of the 32 μg/mL fixed concentration): 72 µM; MIC of norfloxacin, E. coli G69, +64 μg/mL PAβN ([3]; fixed 64 μg/mL PAβN): > 128 µg/mL; MIC of norfloxacin, E. coli 10418, +64 μg/mL PAβN ([4]; fixed 64 μg/mL PAβN): 0.125 µg/mL |
| FKFK [Compound 17, short cationic peptide FKFK, amidated at the C-terminus] | NP | NP | – | – | – | – |
| FKFKF [Compound 19, short cationic peptide FKFKF, amidated at the C-terminus] | 4 µg/mL | 8 µg/mL | 32 µg/mL | – | – | MIC of Novobiocin, E. coli NCTC 10418, +32 μg/mL added peptide ([1]; broth microdilution, duplicate): 128 µg/mL; potentiation of novobiocin against multi-drug resistant E. coli, result in words [2]: restore the susceptibility |
| FKPLPPH [Compound 25, proline-rich peptide FKPLPPH, C-terminal amide; commercial sample from ThermoFisher] | 8 µg/mL | NP | – | > 128 | 0.062 | potentiation of the MIC of novobiocin, result in words [1]: Potentiation was restored but again only against susceptible strain |
| FRFR [Compound 8, short cationic peptide FRFR, amidated at the C-terminus] | NP | 8 µg/mL | NP | – | – | – |
| FRFRF [Compound 10, short cationic peptide FRFRF, amidated at the C-terminus] | 2 µg/mL | 4 µg/mL | 8 µg/mL | – | – | potentiation of novobiocin against multi-drug resistant E. coli, result in words [2]: restore the susceptibility |
| FRRQRF [Compound 21, short cationic peptide FRRQRF, C-terminal amide; commercial sample from ThermoFisher] | NP ^† | NP | – | > 128 | 0.062 | – |
| KFKF [Compound 18, short cationic peptide KFKF, amidated at the C-terminus] | NP | NP | – | – | – | – |
| KWKW [Compound 14, short cationic peptide KWKW, amidated at the C-terminus] | NP | NP | – | – | – | – |
| RFRF [Compound 9, short cationic peptide RFRF, amidated at the C-terminus] | 2 µg/mL | 8 µg/mL | 128 µg/mL | > 128 | 0.062 | MIC of Novobiocin, E. coli NCTC 10418, +32 μg/mL added peptide ([1]; broth microdilution, duplicate): NP |
| RPPWRPPW [Compound 26] | 8 µg/mL | NP | – | > 128 | – | MIC of Novobiocin, E. coli NCTC 10418, +32 μg/mL added peptide ([1]; broth microdilution, duplicate): 64 µg/mL; potentiation of novobiocin against multi-drug resistant E. coli, result in words [2]: no potentiation was seen against the multidrug resistant strain |
| RPRPRPL [Compound 22, proline-rich cationic peptide RPRPRPL, amidated at the C-terminus] | NP | NP | – | > 128 | 0.062 | potentiation of the MIC of novobiocin, result in words [1]: did not show any significant potentiation |
| RPRRPRLPW-NH2 [Compound 27] | 0.125 µg/mL | 16 µg/mL | 16 µg/mL | > 128 | 0.062 | fold reduction in the MIC of novobiocin against the susceptible strain ([1]; E. coli 10418, added peptide): 256 fold; MIC of Novobiocin, E. coli NCTC 10418, +32 μg/mL added peptide ([1]; broth microdilution, duplicate): 8 µg/mL; potentiation of novobiocin against multi-drug resistant E. coli, result in words [2]: restore the susceptibility |
| RRFRF [Compound 11, short cationic peptide RRFRF, amidated at the C-terminus] | 64 µg/mL | 64 µg/mL | – | – | – | – |
| WKWK [Compound 13, short cationic peptide WKWK, amidated at the C-terminus] | NP | NP | – | – | – | – |
